The values below come from US9339509B2, “Methods of use to orally and topically treat acne and other skin conditions by administering a 19-nor containing vitamin D analog with or without a retinoid” (Wisconsin Alumni Research Foundation, priority 2006, dated 2016).

Entries after “also recorded” stand apart in the source; their conditions may differ. A value given as a limit tells only on which side of the number the result lay.

The test system of test [1] is Rhino mouse. Put plainly: Combination of oral atRA and topical 2MBisP in the Rhino mouse (comedone area, skin morphology). Type of test: in vivo. As to the method:
(§1) Animals and dose administration. Rhino mice 6-10 weeks old were dosed via the oral and/or topical route. In the majority of studies, the mice were dosed daily. In one topical study, the efficacy of daily versus intermittent (Monday/Wednesday/Friday) dosing was compared. The mice were weighed three times per week and doses were adjusted weekly based on body weight. The topical formulations were applied to the back of the animal in a maximum volume of 110 μL. The topical formulations were made by mixing the APIs with a topical carrier comprising 70 vol % propylene glycol and 30 vol % ethanol or 30 vol % propylene glycol and 70 vol % ethanol, as indicated. The topical vehicle control was the vehicle carrier solution matched to the formulation containing API and vehicle carrier.
(§2) The oral formulation was made by mixing the APIs with Wesson® soybean oil or NeoBee® oil. The oral dose was delivered to the back of the mouth of each mouse. Mice were sacrificed 4 hours after the final oral dose and 72 hours after the final topical dose. At sacrifice, the dorsal skin was collected for histological studies.
Comedolytic effect. The extent of the comedolytic effect (i.e., efficacy) was assessed by measuring the average area of the comedones, whereby the smaller the area, the larger the effect. The comedone area was determined by histological analysis of tissue sections based on a method developed in our lab (see FIG. 2). Skin was fixed overnight in 4% paraformaldehyde at 4 deg. C. with gentle agitation and dehydrated the next day into 100% methanol. Samples were embedded in paraffin and a total of nine 10 micron sections 150 microns apart were prepared from each Rhino mouse. Five of the nine sections were digitally imaged (6× magnification) for comedone analysis using Metamorph Imaging Software (trace function). The perimeter of each comedone on the images taken from the 5 sections was then traced using a Wacom Intuos 3 Graphics Tablet interfaced with the software. The number of pixels comprising the area of each individual comedone was obtained and transferred to an Excel spreadsheet, and the mean number of pixels per comedone was obtained for each Rhino mouse. For comedones that were completely healed (area=0) a pixel value approaching 0 (<10) was entered into the spreadsheet. The individual comedone area average for each mouse was then used to calculate the treatment group mean. Results in the figures are expressed in terms of mean±standard error of the mean. […]
Preparation of oral atRA dosing formulation. […] The concentration of atRA in that diluted stock solution was determined spectrophotometrically, whereby the molar extinction coefficient=45,200 and λmax=350. The purity of atRA was determined to be >99% by HPLC. […]

The test system of test [2] is Rhino mouse. Put plainly: Comedolytic effect of oral administration to the Rhino mouse (comedone area). Type of test: in vivo.
Description: (§3) Rhino mice were used to topically and orally test the compounds and compositions of the invention. The Rhino mouse is a well-established animal model used to study the comedolytic effects of anti-acne agents including retinoids. (See Boulcier M et al., Experimental Models in Skin Pharmacology, 1990, In Pharmacological Reviews 42:127-15). Mirshahpanah and Maibach, 2007, Cutaneous and Ocular Toxicology 26:195-202). The Rhino mouse model was used to study the therapeutic potential of 2-Methylene-19-nor-20(S)-1α-hydroxy-bishomopregnacalciferol (2MBisP), 19-Nor-26,27-dimethylene-20(S)-2-methylene-1α,25-dihydroxyvitamin D3 (CAGE-3), NEL, 24R-2MD2, Vit-III (17-20E), 2MPregna, 2MP, 20R-2MbisP, 2MTrisP, FF-44, FF-55, HPBS, VD-03 and atRA.
as §1, §2
(§4) Comedolytic effect. The extent of the comedolytic effect (i.e., efficacy) was assessed by measuring the average area of the comedones, whereby the smaller the area, the larger the effect. The comedone area was determined by histological analysis of tissue sections based on a method developed in our lab (see FIG. 2). Skin was fixed overnight in 4% paraformaldehyde at 4 deg. C. with gentle agitation and dehydrated the next day into 100% methanol. Samples were embedded in paraffin and a total of nine 10 micron sections 150 microns apart were prepared from each Rhino mouse. Five of the nine sections were digitally imaged (6× magnification) for comedone analysis using Metamorph Imaging Software (trace function). The perimeter of each comedone on the images taken from the 5 sections was then traced using a Wacom Intuos 3 Graphics Tablet interfaced with the software. The number of pixels comprising the area of each individual comedone was obtained and transferred to an Excel spreadsheet, and the mean number of pixels per comedone was obtained for each Rhino mouse. For comedones that were completely healed (area=0) a pixel value approaching 0 (<10) was entered into the spreadsheet. The individual comedone area average for each mouse was then used to calculate the treatment group mean. Results in the figures are expressed in terms of mean±standard error of the mean.
Preparation of oral dosing solutions containing 2MBisP, CAGE-3, 24R-2MD2, VitIII (17-20E) and NEL. Separate concentrated stocks of 2MBisP, CAGE-3, 24R-2MD2, VitIII (17-20E) and NEL were obtained in ethanol. The concentration was determined spectrophotometrically using a molar extinction coefficient=42,000 and a λmax=252.7. […] The final dose was delivered in ≦50 μL of oil.
Preparation of oral atRA dosing formulation. A concentrated stock solution containing atRA was prepared in dichloromethane. The atRA concentrated stock solution was diluted into ethanol. The concentration of atRA in that diluted stock solution was determined spectrophotometrically, whereby the molar extinction coefficient=45,200 and λmax=350. The purity of atRA was determined to be >99% by HPLC. […]

The subject of test [3] is Rhino mouse. Put plainly: Comedolytic effect of topical application to the Rhino mouse (comedone area). Type of test: in vivo. The following applies: for comedone area (FIG. 5): 30 vol % ethanol/70% propylene glycol; for comedone area relative to vehicle-treated group (FIG. 11): 72 h after final dose.
Description: as §3, §1, §2, §4
Preparation of topical formulations containing 2MBisP, CAGE-3, 24R-2MD2, VitIII (17-20E), NEL, VD-03, 2MPregna, 2MP, 20R-2MBisP, 2MTrisP, FF-44, FF-55, and HPBS. Separate concentrated ethanolic stocks of 2MBisP, CAGE-3, 24R-2MD2, VitIII (17-20E) and NEL were diluted to a final concentration containing 70 vol % propylene glycol and 30 vol % ethanol or 30 vol % propylene glycol and 70 vol % ethanol as the excipient carrier system. The mixture was thoroughly mixed. The topical dosing formulation delivered the desired dosing amount of drug on a per kilogram body weight basis. A dose ranging from 100-110 μL in volume was administered to the back of the mouse. An average weight of 24 or 30 g/mouse was assumed in dose volume calculations. […]

Test [4] deals with retinoic acid receptors (RARs). The following applies: Repa J J et al., 1993; cited from earlier work.
Setting [5] is: daily topical 3 weeks, 70 vol % ethanol/30 vol % propylene glycol, 220 nmole/kgBW/day.

For `C=C1[C@H](O)CC(=C/C=C2\CCC[C@]3(C)C([C@@H](C)CC)CC[C@@H]23)C[C@H]1O` (stereo partly drawn) [2MBisP, 2-methylene-19-nor-20(S)-1α-hydroxy-bishomopregnacalciferol], in the test on Rhino mouse [1] (2MBisP alone topically 21 days (0.22 μmole/kgBW/day, 30 vol % ethanol/70 vol % propylene glycol) with oral vehicle 24 days), the “comedone area vs vehicle control group (FIG. 15)” value is reported as “lacked significant efficacy”. Also, the “skin morphology, H&E sections (FIG. 16)” value with Rhino mouse [1] (female Rhino mice, 2MBisP alone topically 0.22 μmole/kgBW/day, 30% ethanol/70% propylene glycol) was “did not alter skin morphology significantly”. For the same compound, in the test with Rhino mouse [2] (oral daily 24 days, 522 nmole/kgBW/day), the “comedone area (FIG. 12)” value is listed as “reduction in the comedone area”. Further, in the test on Rhino mouse [3] (Mus musculus, 504 h, daily topical ca. 3 weeks, 70 vol % ethanol/30 vol % propylene glycol, dose 22 nmol/kg, mean ± SEM, read-out: Comedone Area (% Vehicle)), the response vs control in vivo at 0.022 µmol/kg is 97 ± 9%. For the same compound, the response vs control in vivo at 0.069 µmol/kg in the test with Rhino mouse [3] (Mus musculus, 504 h, daily topical ca. 3 weeks, 70 vol % ethanol/30 vol % propylene glycol, dose 69 nmol/kg, mean ± SEM, read-out: Comedone Area (% Vehicle)) is 127 ± 12%. The response vs control in vivo at 0.217 µmol/kg with Rhino mouse [3] (Mus musculus, 504 h, daily topical ca. 3 weeks, 70 vol % ethanol/30 vol % propylene glycol, dose 217 nmol/kg, mean ± SEM, read-out: Comedone Area (% Vehicle)) is 49 ± 3%. Further, in the test with Rhino mouse [3] (Mus musculus, 504 h, daily topical ca. 3 weeks, 70 vol % ethanol/30 vol % propylene glycol, dose 694 nmol/kg, mean ± SEM, read-out: Comedone Area (% Vehicle)), the response vs control in vivo at 0.694 µmol/kg was found to be 35 ± 4%. In addition, in the test with Rhino mouse [3] (Mus musculus, 504 h, daily topical ca. 3 weeks, 70 vol % ethanol/30 vol % propylene glycol, dose 2187 nmol/kg, mean ± SEM, read-out: Comedone Area (% Vehicle)), the response vs control in vivo at 2.187 µmol/kg is 32 ± 7%. In addition, the “comedone area (FIG. 5)” value is given as “no effect” in the test with Rhino mouse [3] (daily topical 3 weeks, 220 nmole/kgBW/day) and “near-maximal reduction in comedone area” with Rhino mouse [3] (daily topical 3 weeks, 653 nmole/kgBW/day). Also, the “comedone area (FIG. 7)” value in the test with Rhino mouse [3] (daily topical 3 weeks, 70 vol % ethanol/30 vol % propylene glycol, 22 nmole/kgBW/day) is on record as “no effect”; in the test with Rhino mouse [3] (setting [5]), “significant reduction in comedone area”. The “comedone area relative to vehicle-treated group (FIG. 8, 9, 10)” value in the test with Rhino mouse [3] (daily topical 3 weeks, 70 vol % ethanol/30 vol % propylene glycol, 217 nmole/kgBW/day) was “significant reduction in comedone area”. The “reduction in comedone area (FIG. 6)” value with Rhino mouse [3] (setting [5]) was > 50%. In the test on Rhino mouse [3] (daily topical 3 weeks, 70 vol % ethanol/30 vol % propylene glycol, 653 nmole/kgBW/day), the “comedone area (FIG. 6)” value is recorded as “greater reduction in comedone area as compared to the lower dose”. Besides, the “comedone area relative to vehicle-treated group (FIG. 8)” value in the test with Rhino mouse [3] (daily topical 3 weeks, 70 vol % ethanol/30 vol % propylene glycol, 694 nmole/kgBW/day) is given as “significant reduction in comedone area”. Also, the “comedone area relative to vehicle-treated group (FIG. 11)” value is given as “significant reduction in comedone area” with Rhino mouse [3] (topical 217 nmole/kgBW daily (total of 22 doses), 70 vol % ethanol/30 vol % propylene glycol) and “significant reduction in comedone area” with Rhino mouse [3] (topical 217 nmole/kgBW intermittently Monday, Wednesday, Friday (total of 10 doses), 70 vol % ethanol/30 vol % propylene glycol). The “comedone area vs vehicle control (FIG. 3, FIG. 4)” value with Rhino mouse [3] (topical 3 weeks, 30 vol % ethanol/70 vol % propylene glycol, 5.4 μg/day (ca. 800 nmole/kgBW/day)) is given as “reduction in the comedone area; also recorded: reduced comedone area”. Also, in the test on Rhino mouse [3] (topical, 70 vol % ethanol/30 vol % propylene glycol, more potent than the 20R compound), the “potency in the reduction of comedone area relative to 20R-2MBisP” value is recorded as “approximately ½”.

In the case of `CC1=C(/C=C/C(C)=C/C=C/C(C)=C/C(=O)O)C(C)(C)CCC1` [atRA, all-trans-retinoic acid, reference compound], the “comedone area vs vehicle control group (FIG. 15)” value with Rhino mouse [1] (atRA alone orally 24 days (830 nmole/kgBW/day) with topical vehicle 21 days) was “lacked significant efficacy”. The “skin morphology vs vehicle control, H&E sections (FIG. 16)” value in the test with Rhino mouse [1] (female Rhino mice, atRA alone orally 830 nmole/kgBW/day in soybean oil) is “did not alter skin morphology significantly”. Further, the “comedone size vs vehicle control (FIG. 2)” value in the test with Rhino mouse [2] (oral, 3 weeks, 0.83 μmole/kgBW) is “insignificant reduction in comedone size”; in the test with Rhino mouse [2] (oral, 3 weeks, 16.6 μmole/kgBW), “maximal reduction in comedone size”. Moreover, in the test with Rhino mouse [2] (oral, 3 weeks, various doses), the “comedone area, dose dependence (FIG. 2)” value is “dose-dependent reduction in comedone area”.

For `CC1=C(/C=C/C(C)=C/C=C/C(C)=C\C(=O)O)C(C)(C)CCC1` [13-cis retinoic acid, 13-cis-retinoic acid], in test [4], the “binding to the RARs” value was “does not bind”.

With `C=C1[C@H](O)CC(=C/C=C2\CCC[C@]3(C)/C(=C(\C)CCCC(C)(C)O)CC[C@@H]23)C[C@H]1O` [VitIII (17-20E), 2-methylene-1α,25-dihydroxy-(17E)-17(20)-dehydro-19-nor-vitamin D3], the “comedone area (FIG. 13)” value in the test with Rhino mouse [2] (oral daily 24 days, 24 nmole/kgBW/day) is on record as “no significant reduction in comedone area”. In addition, the response vs control in vivo at 0.024 µmol/kg in the test with Rhino mouse [3] (Mus musculus, 504 h, daily topical ca. 3 weeks, 70 vol % ethanol/30 vol % propylene glycol, dose 24 nmol/kg, mean ± SEM, read-out: Comedone Area (% Vehicle)) is 116 ± 15%.
